Test results as given in patent US10759816B2, “Heterocyclic compounds as RSV inhibitors” (Enanta Pharmaceuticals, Inc., priority 2016, dated 2020).

System: genotype A, "Long" strain RSV
Assay: RSV-A in vitro cytoprotection assay in HEp-2 cells (ATPlite readout of cell viability)
Assay type: cell-based, Human respiratory syncytial virus
Conditions: human respiratory syncytial virus, HEp-2, HEp-2 cells, genotype A “Long” strain RSV, cytoprotection; read-out: Human RSV-A (“Long” strain) EC50
Text: RSV is a single stranded negative sense RNA virus that causes respiratory tract infections which can be dangerous to infants, the elderly, and immunosuppressed individuals. Currently there is no vaccine, and therapeutic options are both costly and of limited effectiveness. These approved treatments are Ribavirin, and Palivizumab/Synagis (a monoclonal antibody). RSV has two genotypes, A and B, which differ primarily in the structure of the virus' surface “G” attachment protein. Our current primary screen focuses on RSV-A and uses an in vitro cytoprotection assay where compounds are added in 2-fold dilutions to cells which are then subjected to fully replicative viral particles. Cell viability is measured several days later along with separate measurements of compound cytotoxicity. This report focuses on the results of our most recent screening of compounds.
HEp-2 cells, (originally derived from tumors grown in irradiated-cortisonised weanling rats that had been injected with epidermoid carcinoma tissue from a person's larynx, but later found to be indistinguishable from HeLa cells by PCR DNA analysis), were used for the culturing of genotype A, “Long” strain RSV. Flasks were inoculated with RSV and viral stocks were collected once cytopathic effect (CPE) was greater than 90%. Viral stocks in 25% sucrose media were snap frozen using liquid nitrogen to increase viral stability. Viral stock titers were quantified by tissue culture infectious dose 50% (TCID50) using 8,000 cells per well and 3-fold viral dilutions across a 96-well plate, cultured for 4 days.
Following extensive parameter testing, the final assay is run as follows: HEp-2 cells are seeded into the inner 60 wells of a 96-well plate at 8,000 cells per well in a volume of 50 μL using Growth Media (DMEM without phenol red, 1% L-Glut, 1% Penn/Strep, 1% nonessential amino acids, 10% FBS). 2-Fold serial dilutions of control and test compounds are added to the wells in duplicate in a total volume of 25 μL. Viral stock is then added to the wells in a volume of 25 μL, bringing the total volume of each well to 100 μL. Each 96-well plate has a control column of 6 wells with cells and virus but no compound (negative control, max CPE), a column with cells but no compound or virus (positive control, minimum CPE), and a column with no cells or virus or compound (background plate/reagent control). The control wells with cells but no virus are given an additional 25 uL of growth media containing an equal quantity of sucrose as those wells receiving the viral stock in order to keep consistent in media and volume conditions. The outer wells of the plate are filled with 125 μL of growth media to act as a thermal and evaporative moat around the test wells. Following a 4-day incubation period, the plates are read using ATPlite (50 uL added per well), which quantifies the amount of ATP (a measure of cell health) present in each well. Assay plates are read using the Envision luminometer. In parallel, cytotoxicity is examined on an additional 96-well plate treated in an identical manner, but substituting the 25 μL of viral stock for 25 μL of growth media. […] EC50 ranges are as follows: A <0.4 μM; B 0.4-0.8 μM; C >0.8 μM.

SMILES	EC50
O=C(NC1CC1)c1cc2c(s1)-c1ccccc1N(C(=O)c1ccc(CN3CCOCC3)cc1)CC2 [Example 1]	> 0.8 µM
O=C(NC1CC1)c1cc2c(s1)-c1ccccc1N(C(=O)c1cccc(CN3CCOCC3)c1)CC2 [Example 2]	> 0.8 µM
O=C(NC1CC1)c1cc2c(s1)-c1ccccc1N(C(=O)c1ccc(N3CCOCC3)cc1)CC2 [Example 3]	> 0.8 µM
O=C(NC1CC1)c1cc2c(s1)-c1ccccc1N(C(=O)c1cccc(N3CCOCC3)c1)CC2 [Example 4]	> 0.8 µM
COc1ccc(-c2cccc(C(=O)N3CCc4cc(C(=O)NC5CC5)sc4-c4ccccc43)c2)cc1 [Example 5]	0.4 to 0.8 µM
COc1ccc(-c2cccc(C(=O)N3CCc4cc(C(=O)NC5CC5)sc4-c4ccccc43)c2)cn1 [Example 6]	> 0.8 µM
N#Cc1ccc(-c2cccc(C(=O)N3CCc4cc(C(=O)NC5CC5)sc4-c4ccccc43)c2)cc1 [Example 7]	0.4 to 0.8 µM
O=C(NC1CC1)c1cc2c(s1)-c1ccccc1N(C(=O)c1ccc(CC(=O)N3CCOCC3)cc1)CC2 [Example 8]	> 0.8 µM
CS(=O)(=O)N1CCCc2cc(C(=O)N3CCc4cc(C(=O)NC5CC5)sc4-c4ccccc43)ccc21 [Example 9]	> 0.8 µM
O=C(NC1CC1)c1cc2c(s1)-c1ccccc1N(C(=O)c1ccc3nc(N4CCOCC4)oc3c1)CC2 [Example 10]	> 0.8 µM
O=C(NC1CC1)c1cc2c(s1)-c1ccccc1N(C(=O)c1ccc3nc(CN4CCOCC4)oc3c1)CC2 [Example 11]	> 0.8 µM
O=C(NC1CC1)c1cc2c(s1)-c1ccccc1N(C(=O)c1csc(N3CCOCC3)n1)CC2 [Example 12]	0.4 to 0.8 µM
O=C(NC1CC1)c1cc2c(s1)-c1ccccc1N(C(=O)c1ccc3ncn(C4CCOCC4)c3c1)CC2 [Example 13]	> 0.8 µM
O=C(NC1CC1)c1cc2c(s1)-c1ccccc1N(C(=O)c1ccc3c(c1)ncn3C1CCOCC1)CC2 [Example 14]	> 0.8 µM
O=C(NC1CC1)c1cc2c(s1)-c1ccccc1N(C(=O)c1ccc(NC(=O)N3CCOCC3c3ccccc3)cc1)CC2 (stereo not drawn) [Example 15]	> 0.8 µM
O=C(NC1CC1)c1cc2c(s1)-c1ccccc1N(C(=O)c1cccc(N3CCOCC3)n1)CC2 [Example 16]	0.4 to 0.8 µM
O=C(NC1CC1)c1cc2c(s1)-c1ccccc1N(C(=O)c1cccc(N3CCCOCC3)n1)CC2 [Example 17]	< 0.4 µM
O=C(NC1CC1)c1cc2c(s1)-c1ccccc1N(C(=O)c1cccc(N3CCC4(CC3)COC4)n1)CC2 [Example 18]	0.4 to 0.8 µM
O=C(NC1CC1)c1cc2c(s1)-c1ccccc1N(C(=O)c1cccc(N3CC4(CCOCC4)C3)n1)CC2 [Example 19]	> 0.8 µM
CC(=O)N1CCN(c2cccc(C(=O)N3CCc4cc(C(=O)NC5CC5)sc4-c4ccccc43)n2)CC1 [Example 20]	0.4 to 0.8 µM

SMILES	EC50
COC1CCN(c2cccc(C(=O)N3CCc4cc(C(=O)NC5CC5)sc4-c4ccccc43)n2)CC1 [Example 21]	0.4 to 0.8 µM
O=C1CN(c2cccc(C(=O)N3CCc4cc(C(=O)NC5CC5)sc4-c4ccccc43)n2)CCN1 [Example 22]	0.4 to 0.8 µM
O=C(NC1CC1)c1cc2c(s1)-c1ccccc1N(C(=O)c1cccc(N3CCC(F)(F)CC3)n1)CC2 [Example 23]	< 0.4 µM
CC1CN(c2cccc(C(=O)N3CCc4cc(C(=O)NC5CC5)sc4-c4ccccc43)n2)CC(C)O1 (stereo not drawn) [Example 24]	0.4 to 0.8 µM
O=C(NC1CC1)c1cc2c(s1)-c1ccccc1N(C(=O)c1cccc(N3CCC4(CC3)CC4)n1)CC2 [Example 25]	0.4 to 0.8 µM
O=C(NC1CC1)c1cc2c(s1)-c1ccccc1N(C(=O)c1cccc(N3CCC4(CCOCC4)CC3)n1)CC2 [Example 26]	0.4 to 0.8 µM
O=C(NC1CC1)c1cc2c(s1)-c1ccccc1N(C(=O)c1cccc(N3CCN(C4COC4)CC3)n1)CC2 [Example 27]	0.4 to 0.8 µM
O=C(NC1CC1)c1cc2c(s1)-c1ccccc1N(C(=O)c1cccc(N3CC4CCC(C3)O4)n1)CC2 [Example 28]	< 0.4 µM
O=C(NC1CC1)c1cc2c(s1)-c1ccccc1N(C(=O)c1cccc(N3C4CCC3COC4)n1)CC2 [Example 29]	0.4 to 0.8 µM
O=C(NC1CC1)c1cc2c(s1)-c1ccccc1N(C(=O)c1cccc(N3CCC(c4ccccc4)CC3)n1)CC2 [Example 30]	> 0.8 µM
O=C(NC1CC1)c1cc2c(s1)-c1ccccc1N(C(=O)c1cccc(N3CCc4ccccc4CC3)n1)CC2 [Example 31]	> 0.8 µM
O=C(NC1CC1)c1cc2c(s1)-c1ccccc1N(C(=O)c1cccc(N3CCOc4ccccc4C3)n1)CC2 [Example 32]	< 0.4 µM
COCCNc1cccc(C(=O)N2CCc3cc(C(=O)NC4CC4)sc3-c3ccccc32)n1 [Example 33]	0.4 to 0.8 µM
COCCN(C)c1cccc(C(=O)N2CCc3cc(C(=O)NC4CC4)sc3-c3ccccc32)n1 [Example 34]	0.4 to 0.8 µM
COCCCNc1cccc(C(=O)N2CCc3cc(C(=O)NC4CC4)sc3-c3ccccc32)n1 [Example 35]	0.4 to 0.8 µM
CN1CCCN(c2cccc(C(=O)N3CCc4cc(C(=O)NC5CC5)sc4-c4ccccc43)n2)CC1 [Example 36]	0.4 to 0.8 µM
N[C@H]1CCN(c2cccc(C(=O)N3CCc4cc(C(=O)NC5CC5)sc4-c4ccccc43)n2)C1 [Example 37]	> 0.8 µM
N[C@@H]1CCN(c2cccc(C(=O)N3CCc4cc(C(=O)NC5CC5)sc4-c4ccccc43)n2)C1 [Example 38]	> 0.8 µM
COc1ccc(C(=O)N2CCc3cc(C(=O)NC4CC4)sc3-c3ccccc32)nc1N1CCOCC1 [Example 39]	> 0.8 µM
COc1ccc(C(=O)N2CCc3cc(C(=O)NC4CC4)sc3-c3ccccc32)nc1N1CCCOCC1 [Example 40]	0.4 to 0.8 µM

SMILES	EC50
O=C(NC1CC1)c1cc2c(s1)-c1ccccc1N(C(=O)c1ccc(Cl)c(N3CCOCC3)n1)CC2 [Example 42]	0.4 to 0.8 µM
O=C(NC1CC1)c1cc2c(s1)-c1ccccc1N(C(=O)c1ccc(Cl)c(N3CCCOCC3)n1)CC2 [Example 43]	0.4 to 0.8 µM
O=C(NC1CC1)c1cc2c(s1)-c1ccccc1N(C(=O)c1ccc(F)c(N3CCOCC3)n1)CC2 [Example 44]	0.4 to 0.8 µM
O=C(NC1CC1)c1cc2c(s1)-c1ccccc1N(C(=O)c1ccc(F)c(N3CCCOCC3)n1)CC2 [Example 45]	< 0.4 µM
O=C(NC1CC1)c1cc2c(s1)-c1ccccc1N(C(=O)c1ccnc(N3CCOCC3)c1)CC2 [Example 46]	> 0.8 µM
O=C(NC1CC1)c1cc2c(s1)-c1ccccc1N(C(=O)c1cncc(N3CCOCC3)c1)CC2 [Example 47]	> 0.8 µM
O=C(NC1CC1)c1cc2c(s1)-c1ccccc1N(C(=O)c1cc(N3CCOCC3)ccn1)CC2 [Example 48]	> 0.8 µM
O=C(NC1CC1)c1cc2c(s1)-c1ccccc1N(C(=O)c1cc(N3CCOCC3)ncn1)CC2 [Example 49]	> 0.8 µM
O=C(NC1CC1)c1cc2c(s1)-c1ccccc1N(C(=O)c1cc(N3CCCOCC3)ncn1)CC2 [Example 50]	> 0.8 µM
O=C(NC1CC1)c1cc2c(s1)-c1ccccc1N(C(=O)c1ccnc(N3CCOCC3)n1)CC2 [Example 51]	0.4 to 0.8 µM
O=C(NC1CC1)c1cc2c(s1)-c1ccccc1N(C(=O)c1ccnc(N3CCCOCC3)n1)CC2 [Example 52]	0.4 to 0.8 µM
O=C(NC1CC1)c1cc2c(s1)-c1ccccc1N(C(=O)c1cncc(N3CCOCC3)n1)CC2 [Example 53]	0.4 to 0.8 µM
O=C(NC1CC1)c1cc2c(s1)-c1ccccc1N(C(=O)c1cccc(C3=CCNCC3)n1)CC2 [Example 54]	> 0.8 µM
O=C(NC1CC1)c1cc2c(s1)-c1ccccc1N(C(=O)c1cccc(C3CCNCC3)n1)CC2 [Example 55]	> 0.8 µM
O=C(NC1CC1)c1cc2c(s1)-c1ccccc1N(C(=O)c1cccc(C3=CCN(C4COC4)CC3)n1)CC2 [Example 56]	> 0.8 µM
O=C(NC1CC1)c1cc2c(s1)-c1ccccc1N(C(=O)c1cccc(C3CCN(C4COC4)CC3)n1)CC2 [Example 57]	0.4 to 0.8 µM
CC(=O)N1CCC(c2cccc(C(=O)N3CCc4cc(C(=O)NC5CC5)sc4-c4ccccc43)n2)CC1 [Example 58]	0.4 to 0.8 µM
O=C(NC1CC1)c1cc2c(s1)-c1ccccc1N(C(=O)c1cccc(C3=CCOCC3)n1)CC2 [Example 59]	0.4 to 0.8 µM
O=C(NC1CC1)c1cc2c(s1)-c1ccccc1N(C(=O)c1cccc(C3CCOCC3)n1)CC2 [Example 60]	0.4 to 0.8 µM
O=C(NC1CC1)c1cc2c(s1)-c1ccccc1N(C(=O)c1cccc(NC3CCOCC3)n1)CC2 [Example 61]	> 0.8 µM
